This assay has as its system CD2F1 mice, L1210 leukemia ip, survival T/C. The experiment in a line: NCI In Vivo Anticancer Drug Screen. Data for tumor model L1210 Leukemia (intraperitoneal) in CD2F1 (CDF1) mice. To be noted: higher = longer survival. The essentials:
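Read-out first: treated-group measurement over vehicle-control measurement, expressed as a ratio. Animals bore a transplanted tumor line and were dosed with compound or vehicle.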

The mark [1] stands for this setting: endpoint: mean survival time, dose: 100.0 mg/kg/injection, schedule: Q04DX003 (ip), vehicle: saline with Tween-80.
[2] abbreviates: endpoint: mean survival time, dose: 200.0 mg/kg/injection, schedule: Q04DX003 (ip), vehicle: saline with Tween-80.
The mark [3] stands for this setting: endpoint: mean survival time, dose: 400.0 mg/kg/injection, schedule: Q04DX003 (ip), vehicle: saline with Tween-80.
Setting [4] is: endpoint: mean survival time, dose: 12.5 mg/kg/injection, schedule: Q04DX002 (ip), vehicle: saline with Tween-80.
Setting [5] is: endpoint: mean survival time, dose: 100.0 mg/kg/injection, schedule: Q01DX001 (ip), vehicle: saline with Tween-80.
[6] abbreviates: endpoint: mean survival time, dose: 200.0 mg/kg/injection, schedule: Q01DX001 (ip), vehicle: saline with Tween-80.
Where [7] appears, read: endpoint: mean survival time, dose: 50.0 mg/kg/injection, schedule: Q01DX009 (ip), vehicle: saline.
[8] abbreviates: endpoint: mean survival time, dose: 100.0 mg/kg/injection, schedule: Q01DX009 (ip), vehicle: saline.

Where “and” joins values, the source holds several entries; their conditions need not be identical. Identical values can stand only once. Toxic doses and inconclusive results are not listed.

As for `C=C1C(=O)OCC2C(C(=O)O)=CC3C(C)C(C)=CC123` (configuration not stated), the T/C (endpoint: mean survival time, dose: 20.0 mg/kg/injection, schedule: Q04DX003 (ip), vehicle: saline with Tween-80) is 109 % of control; the T/C (endpoint: mean survival time, dose: 40.0 mg/kg/injection, schedule: Q04DX003 (ip), vehicle: saline with Tween-80) was 121 % of control; the T/C (endpoint: mean survival time, dose: 80.0 mg/kg/injection, schedule: Q04DX003 (ip), vehicle: saline with Tween-80) was 120 % of control.

On to `O=C(CSC1=NCCN1)c1ccc([N+](=O)[O-])cc1`, for which the T/C by setting is: (endpoint: mean survival time, dose: 25.0 mg/kg/injection, schedule: Q04DX003 (ip), vehicle: saline with Tween-80) 94 % of control; (endpoint: mean survival time, dose: 50.0 mg/kg/injection, schedule: Q04DX003 (ip), vehicle: saline with Tween-80) 93 % of control; under setting [1], 93 % of control.

Turning to `N#Cc1cnn2ccn(C3OC(CO)C(O)C3O)c12` (configuration not stated), the T/C was 97 % of control (endpoint: median survival time, dose: 9.38 mg/kg/injection, schedule: Q01DX005 (ip), vehicle: water); 100 % of control (endpoint: median survival time, dose: 18.75 mg/kg/injection, schedule: Q01DX005 (ip), vehicle: water); 98 % of control (endpoint: median survival time, dose: 37.5 mg/kg/injection, schedule: Q01DX005 (ip), vehicle: water); 98 % of control (endpoint: median survival time, dose: 75.0 mg/kg/injection, schedule: Q01DX005 (ip), vehicle: water); 97 % of control (endpoint: median survival time, dose: 150.0 mg/kg/injection, schedule: Q01DX005 (ip), vehicle: water).

`O=S(=O)(Nc1ccc(NS(=O)(=O)c2ccccc2)c2ccccc12)c1ccccc1`: the T/C is, setting by setting: under setting [1], 97 % of control; under setting [2], 91 % of control; under setting [3], 96 % of control.

`CN1CCCC(OC(=O)C(c2ccccc2)C2(O)CCCCC2)C1` (configuration not stated): the T/C (endpoint: mean survival time, dose: 75.0 mg/kg/injection, schedule: Q01DX001 (ip), vehicle: saline) is 101 % of control.

With `Cc1c([N+](=O)[O-])cc(Cl)n[n+]1[O-]`, the T/C was 101 % of control (endpoint: mean survival time, dose: 3.13 mg/kg/injection, schedule: Q04DX002 (ip), vehicle: saline with Tween-80); 97 % of control (endpoint: mean survival time, dose: 6.25 mg/kg/injection, schedule: Q04DX002 (ip), vehicle: saline with Tween-80); 96 % of control under setting [4].

Turning to `OCC(O)C(O)C(O)c1csc(=S)[nH]1` (configuration not stated), the T/C by setting is: under setting [5], 97 % of control; under setting [6], 103 % of control; (endpoint: mean survival time, dose: 400.0 mg/kg/injection, schedule: Q01DX001 (ip), vehicle: saline with Tween-80) 100 % of control.

As to `NC(CSS(=O)(=O)O)=NCCc1cccs1`, the T/C is, setting by setting: under setting [4], 97 % of control; (endpoint: mean survival time, dose: 25.0 mg/kg/injection, schedule: Q04DX002 (ip), vehicle: saline with Tween-80) 105 % of control.

Consider `CCOC(=O)NCNC(C)C(=O)O` (configuration not stated), for which the T/C is 115 % of control under setting [7]; 104 % of control under setting [8]; 115 % of control (endpoint: mean survival time, dose: 200.0 mg/kg/injection, schedule: Q01DX009 (ip), vehicle: saline).

Regarding `OC1COC(c2cnn(-c3ccccc3)n2)C1O` (configuration not stated), the T/C reads like this: (endpoint: median survival time, dose: 12.5 mg/kg/injection, schedule: Q01DX005 (ip), vehicle: water) 105 % of control and 110 % of control; (endpoint: median survival time, dose: 25.0 mg/kg/injection, schedule: Q01DX005 (ip), vehicle: water) 103 % of control; (endpoint: median survival time, dose: 50.0 mg/kg/injection, schedule: Q01DX005 (ip), vehicle: water) 105 % of control and 103 % of control; (endpoint: median survival time, dose: 100.0 mg/kg/injection, schedule: Q01DX005 (ip), vehicle: water) 103 % of control and 104 % of control; (endpoint: median survival time, dose: 200.0 mg/kg/injection, schedule: Q01DX005 (ip), vehicle: water) 100 % of control and 103 % of control; (endpoint: median survival time, dose: 400.0 mg/kg/injection, schedule: Q01DX005 (ip), vehicle: water) 107 % of control.

As to `Cn1c(=O)c2c(ncn2CN2CCN(Cn3cnc4c3c(=O)n(C)c(=O)n4C)CC2)n(C)c1=O`, the T/C (endpoint: mean survival time, dose: 100.0 mg/kg/injection, schedule: Q01DX001 (ip), vehicle: saline) was 94 % of control and the T/C (endpoint: mean survival time, dose: 200.0 mg/kg/injection, schedule: Q01DX001 (ip), vehicle: saline) was 97 % of control.

Consider `O=C1Cc2c([nH]c(=S)[nH]c2=O)N1`, for which the T/C is 94 % of control (endpoint: median survival time, dose: 50.0 mg/kg/injection, schedule: Q01DX005 (ip), vehicle: saline); 102 % of control (endpoint: median survival time, dose: 100.0 mg/kg/injection, schedule: Q01DX005 (ip), vehicle: saline); 101 % of control (endpoint: median survival time, dose: 200.0 mg/kg/injection, schedule: Q01DX005 (ip), vehicle: saline).

In the case of `CC(=O)OCC1OC(OC(C)=O)C(NC(=O)Nc2cccc([N+](=O)[O-])c2)C(OC(C)=O)C1OC(C)=O` (configuration not stated), the T/C reads like this: (endpoint: mean survival time, dose: 12.5 mg/kg/injection, schedule: Q01DX009 (ip), vehicle: other) 96 % of control; (endpoint: mean survival time, dose: 25.0 mg/kg/injection, schedule: Q01DX009 (ip), vehicle: other) 96 % of control; (endpoint: mean survival time, dose: 50.0 mg/kg/injection, schedule: Q01DX009 (ip), vehicle: other) 98 % of control; (endpoint: mean survival time, dose: 100.0 mg/kg/injection, schedule: Q01DX009 (ip), vehicle: other) 100 % of control; (endpoint: mean survival time, dose: 200.0 mg/kg/injection, schedule: Q01DX009 (ip), vehicle: other) 93 % of control.

As for `O=P(O)(O)OP(=O)(O)O.[NH-]CC[NH-].[NH-]CC[NH-].[Pd+2].[Pd+2]`, the T/C is 98 % of control (endpoint: mean survival time, dose: 3.13 mg/kg/injection, schedule: Q04DX003 (ip), vehicle: distilled water + Tween-80); 93 % of control (endpoint: mean survival time, dose: 6.25 mg/kg/injection, schedule: Q04DX003 (ip), vehicle: distilled water + Tween-80); 87 % of control (endpoint: mean survival time, dose: 12.5 mg/kg/injection, schedule: Q04DX003 (ip), vehicle: distilled water + Tween-80); 96 % of control (endpoint: mean survival time, dose: 25.0 mg/kg/injection, schedule: Q04DX003 (ip), vehicle: distilled water + Tween-80); 100 % of control (endpoint: mean survival time, dose: 50.0 mg/kg/injection, schedule: Q04DX003 (ip), vehicle: distilled water + Tween-80); 105 % of control (endpoint: mean survival time, dose: 100.0 mg/kg/injection, schedule: Q04DX003 (ip), vehicle: distilled water + Tween-80).

`O=C(/C=C\c1ccc(/C=C/C(=O)Nc2cccc(C3=NCCCN3)c2)cc1)Nc1cccc(C2=NCCCN2)c1`: the T/C runs as follows: (endpoint: median survival time, dose: 5.0 mg/kg/injection, schedule: Q01DX009 (ip), vehicle: Klucel (hydroxypropylcellulose) (HPC)) 175 % of control and 196 % of control; (endpoint: median survival time, dose: 10.0 mg/kg/injection, schedule: Q01DX009 (ip), vehicle: Klucel (hydroxypropylcellulose) (HPC)) 185 % of control and 250 % of control; (endpoint: median survival time, dose: 20.0 mg/kg/injection, schedule: Q01DX009 (ip), vehicle: Klucel (hydroxypropylcellulose) (HPC)) 113 % of control.

On to `Oc1ccccc1Cn1ccnc1`, for which the T/C is 104 % of control (endpoint: mean survival time, dose: 25.0 mg/kg/injection, schedule: Q01DX009 (ip), vehicle: saline); 98 % of control under setting [7]; 98 % of control and 103 % of control under setting [8].

`O=C1CSC(=S)N1/N=C/c1ccc(Cl)c([N+](=O)[O-])c1`: the T/C is 92 % of control (endpoint: mean survival time, dose: 100.0 mg/kg/injection, schedule: Q01DX009 (ip), vehicle: saline with Tween-80); 92 % of control under setting [1]; 100 % of control (endpoint: mean survival time, dose: 200.0 mg/kg/injection, schedule: Q01DX009 (ip), vehicle: saline with Tween-80); 95 % of control under setting [2]; 90 % of control (endpoint: mean survival time, dose: 400.0 mg/kg/injection, schedule: Q01DX009 (ip), vehicle: saline with Tween-80); 86 % of control under setting [3].

On to `CCN(CC)Cc1cc(Nc2ncnc3[nH]c(C)c(C)c23)ccc1O`, for which the T/C runs as follows: (endpoint: mean survival time, dose: 50.0 mg/kg/injection, schedule: Q04DX002 (ip), vehicle: saline with Tween-80) 89 % of control; under setting [5], 97 % of control; under setting [6], 100 % of control; (endpoint: mean survival time, dose: 200.0 mg/kg/injection, schedule: Q04DX002 (ip), vehicle: saline with Tween-80) 92 % of control.

On to `CC(=O)[CH-]C(C)=O.O=[N+]([O-])O.[NH-]C1CCCCC1[NH-].[Pt+4]` (configuration not stated), for which the T/C is, setting by setting: (endpoint: mean survival time, dose: 1.25 mg/kg/injection, schedule: Q04DX003 (ip), vehicle: water) 95 % of control; (endpoint: mean survival time, dose: 2.5 mg/kg/injection, schedule: Q04DX003 (ip), vehicle: water) 98 % of control; (endpoint: mean survival time, dose: 5.0 mg/kg/injection, schedule: Q04DX003 (ip), vehicle: water) 98 % of control; (endpoint: mean survival time, dose: 10.0 mg/kg/injection, schedule: Q04DX003 (ip), vehicle: water) 110 % of control.

Regarding `COc1ccc(C2NCCc3cc(OC)c(OC)cc32)cc1OC` (configuration not stated), the T/C (endpoint: mean survival time, dose: 12.5 mg/kg/injection, schedule: Q01DX009 (ip), vehicle: water) is 98 % of control; the T/C (endpoint: mean survival time, dose: 25.0 mg/kg/injection, schedule: Q01DX009 (ip), vehicle: water) was 98 % of control; the T/C (endpoint: mean survival time, dose: 50.0 mg/kg/injection, schedule: Q01DX009 (ip), vehicle: water) was 98 % of control; the T/C (endpoint: mean survival time, dose: 100.0 mg/kg/injection, schedule: Q01DX009 (ip), vehicle: water) was 106 % of control.

The values above are taken from PubChem BioAssay AID256 (DTP/NCI, 2004).
